The record followed here is patent US20220389061A1, “IMMUNOMODULATORS” (priority 2019, published 2022).

Positions of bridges follow the written chain, without caps; N, C: chain ends. Non-standard residues stand in square brackets, D forms with d. Residues, ends and D or L forms follow the SMILES beside them. *: point of attachment. Trp(1-CH2COOH) = N[C@@H](Cc1cn(CC(=O)O)c2ccccc12)C(=O)O; X65 = CC(C)(C)OC(=O)Nc1ccc(NC(=S)*)cc1; X95 = O=[N+]([O-])c1cccc(NC(=S)*)c1; Hyp = O=C(O)[C@@H]1C[C@@H](O)CN1; X19 = CCOC(=O)c1ccc(NC(=S)*)cc1; X44 = FC(F)(F)c1ccc(NC(=S)*)cc1; X96 = Fc1cc(F)c(NC(=S)*)c(F)c1; NMeNle = CCCC[C@H](NC)C(=O)O; X85 = S=C(Nc1c(Cl)cccc1Cl)*; X9 = Fc1ccc(NC(=S)*)c(Cl)c1; NMeA = CN[C@@H](C)C(=O)O; Dab = NCC[C@H](N)C(=O)O; Dap = NC[C@H](N)C(=O)O

In one test the target is T1, PD-1/PD-L1 (Homo sapiens, UniProt Q9NZQ7).
T1 construct: TVMV protease site linker (C); made in house; host or cells: HEK293T cells
T1 sequence (Q9NZQ7 18-239): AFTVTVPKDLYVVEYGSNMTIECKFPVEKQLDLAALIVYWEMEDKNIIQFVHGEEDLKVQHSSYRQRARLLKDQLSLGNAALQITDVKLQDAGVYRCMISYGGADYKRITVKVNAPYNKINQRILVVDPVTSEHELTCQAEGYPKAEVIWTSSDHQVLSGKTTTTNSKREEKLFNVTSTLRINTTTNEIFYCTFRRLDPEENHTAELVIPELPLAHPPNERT
The test can be described thus: PD-1/PD-L1 Homogenous Time-Resolved Fluorescence (HTRF) binding assay.
Conditions: not given
The essentials:
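Compounds preincubated 15 min with PD-L1-His (10 nM final), then PD-1-Ig (20 nM final) added for 15 min in dPBS with 0.1% BSA, 0.05% Tween-20. Detection by Eu-cryptate anti-Ig (1 nM) and APC anti-His (20 nM) HTRF.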
A general note: In TR-FRET formats the signal depends on donor and acceptor labels being close together.
Consider `CCCC[C@H]1C(=O)N(C)[C@@H](CCCC)C(=O)N[C@@H](CC(C)C)C(=O)N[C@H](C(=O)NCC(N)=O)CSCC(=O)N[C@@H](Cc2ccc(O)cc2)C(=O)N(C)[C@@H](C)C(=O)N[C@@H](CC(N)=O)C(=O)N2CCC[C@H]2C(=O)N[C@@H](CNC(=S)Nc2cccc([N+](=O)[O-])c2)C(=O)N[C@@H](CC(C)C)C(=O)N2C[C@H](O)C[C@H]2C(=O)N[C@@H](Cc2c[nH]c3ccccc23)C(=O)N[C@@H](CCNC(=S)Nc2cccc([N+](=O)[O-])c2)C(=O)N[C@@H](Cc2cn(CC(=O)O)c3ccccc23)C(=O)N1C` [Example 1036] ({CH2CO}-Y[NMeA]NP[Dap](X95)L[Hyp]W[Dab](X95)[Trp(1-CH2COOH)][NMeNle][NMeNle]LCG-NH2; thioether N-14), for which the half-maximal inhibitory concentration (IC50) amounted to 2.6 nM.

Still in this test, the particulars now being: PD-L1-His 10 nM pre-incubated with inhibitor, PD-1-Ig 20 nM; read-out: HTRF IC50.
`CCCC[C@H]1C(=O)N(C)[C@@H](CCCC)C(=O)N[C@@H](CC(C)C)C(=O)N[C@H](C(=O)NCC(N)=O)CSCC(=O)N[C@@H](Cc2ccc(O)cc2)C(=O)N(C)[C@@H](C)C(=O)N[C@@H](CC(N)=O)C(=O)N2CCC[C@H]2C(=O)N[C@@H](CNC(=S)Nc2ccc(F)cc2Cl)C(=O)N[C@@H](CC(C)C)C(=O)N2C[C@H](O)C[C@H]2C(=O)N[C@@H](Cc2c[nH]c3ccccc23)C(=O)N[C@@H](CCN)C(=O)N[C@@H](Cc2cn(CC(=O)O)c3ccccc23)C(=O)N1C` [Example 1030] ({CH2CO}-Y[NMeA]NP[Dap](X9)L[Hyp]W[Dab][Trp(1-CH2COOH)][NMeNle][NMeNle]LCG-NH2; thioether N-14): the IC50 came out at 2.6 nM.
In the case of `CCCC[C@H]1C(=O)N(C)[C@@H](CCCC)C(=O)N[C@@H](CC(C)C)C(=O)N[C@H](C(=O)NCC(N)=O)CSCC(=O)N[C@@H](Cc2ccc(O)cc2)C(=O)N(C)[C@@H](C)C(=O)N[C@@H](CC(N)=O)C(=O)N2CCC[C@H]2C(=O)N[C@@H](CNC(=S)Nc2ccc(F)cc2Cl)C(=O)N[C@@H](CC(C)C)C(=O)N2C[C@H](O)C[C@H]2C(=O)N[C@@H](Cc2c[nH]c3ccccc23)C(=O)N[C@@H](CCNC(=S)Nc2ccc(F)cc2Cl)C(=O)N[C@@H](Cc2cn(CC(=O)O)c3ccccc23)C(=O)N1C` [Example 1031] ({CH2CO}-Y[NMeA]NP[Dap](X9)L[Hyp]W[Dab](X9)[Trp(1-CH2COOH)][NMeNle][NMeNle]LCG-NH2; thioether N-14), the IC50 was determined as 2.8 nM.
Same read-out and setting: then `CCCC[C@H]1C(=O)N(C)[C@@H](CCCC)C(=O)N[C@@H](CC(C)C)C(=O)N[C@H](C(=O)NCC(N)=O)CSCC(=O)N[C@@H](Cc2ccc(O)cc2)C(=O)N(C)[C@@H](C)C(=O)N[C@@H](CC(N)=O)C(=O)N2CCC[C@H]2C(=O)N[C@@H](CNC(=S)Nc2ccc(C(F)(F)F)cc2)C(=O)N[C@@H](CC(C)C)C(=O)N2C[C@H](O)C[C@H]2C(=O)N[C@@H](Cc2c[nH]c3ccccc23)C(=O)N[C@@H](CCN)C(=O)N[C@@H](Cc2cn(CC(=O)O)c3ccccc23)C(=O)N1C` [Example 1034] ({CH2CO}-Y[NMeA]NP[Dap](X44)L[Hyp]W[Dab][Trp(1-CH2COOH)][NMeNle][NMeNle]LCG-NH2; thioether N-14), with 3.5 nM; and `CCCC[C@H]1C(=O)N(C)[C@@H](CCCC)C(=O)N[C@@H](CC(C)C)C(=O)N[C@H](C(=O)NCC(N)=O)CSCC(=O)N[C@@H](Cc2ccc(O)cc2)C(=O)N(C)[C@@H](C)C(=O)N[C@@H](CC(N)=O)C(=O)N2CCC[C@H]2C(=O)N[C@@H](CNC(=S)Nc2ccc(C(F)(F)F)cc2)C(=O)N[C@@H](CC(C)C)C(=O)N2C[C@H](O)C[C@H]2C(=O)N[C@@H](Cc2c[nH]c3ccccc23)C(=O)N[C@@H](CCNC(=S)Nc2ccc(C(F)(F)F)cc2)C(=O)N[C@@H](Cc2cn(CC(=O)O)c3ccccc23)C(=O)N1C` [Example 1035] ({CH2CO}-Y[NMeA]NP[Dap](X44)L[Hyp]W[Dab](X44)[Trp(1-CH2COOH)][NMeNle][NMeNle]LCG-NH2; thioether N-14), with 2.1 nM; and `CCCC[C@H]1C(=O)N(C)[C@@H](CCCC)C(=O)N[C@@H](CC(C)C)C(=O)N[C@H](C(=O)NCC(N)=O)CSCC(=O)N[C@@H](Cc2ccc(O)cc2)C(=O)N(C)[C@@H](C)C(=O)N[C@@H](CC(N)=O)C(=O)N2CCC[C@H]2C(=O)N[C@@H](CNC(=S)Nc2cccc([N+](=O)[O-])c2)C(=O)N[C@@H](CC(C)C)C(=O)N2C[C@H](O)C[C@H]2C(=O)N[C@@H](Cc2c[nH]c3ccccc23)C(=O)N[C@@H](CCN)C(=O)N[C@@H](Cc2cn(CC(=O)O)c3ccccc23)C(=O)N1C` [Example 1037] ({CH2CO}-Y[NMeA]NP[Dap](X95)L[Hyp]W[Dab][Trp(1-CH2COOH)][NMeNle][NMeNle]LCG-NH2; thioether N-14), with 2.8 nM.
Same read-out and setting: then `CCCC[C@H]1C(=O)N(C)[C@@H](CCCC)C(=O)N[C@@H](CC(C)C)C(=O)N[C@H](C(=O)NCC(N)=O)CSCC(=O)N[C@@H](Cc2ccc(O)cc2)C(=O)N(C)[C@@H](C)C(=O)N[C@@H](CC(N)=O)C(=O)N2CCC[C@H]2C(=O)N[C@@H](CNC(=S)Nc2c(Cl)cccc2Cl)C(=O)N[C@@H](CC(C)C)C(=O)N2C[C@H](O)C[C@H]2C(=O)N[C@@H](Cc2c[nH]c3ccccc23)C(=O)N[C@@H](CCN)C(=O)N[C@@H](Cc2cn(CC(=O)O)c3ccccc23)C(=O)N1C` [Example 1038] ({CH2CO}-Y[NMeA]NP[Dap](X85)L[Hyp]W[Dab][Trp(1-CH2COOH)][NMeNle][NMeNle]LCG-NH2; thioether N-14), with 2.4 nM; and `CCCC[C@H]1C(=O)N(C)[C@@H](CCCC)C(=O)N[C@@H](CC(C)C)C(=O)N[C@H](C(=O)NCC(N)=O)CSCC(=O)N[C@@H](Cc2ccc(O)cc2)C(=O)N(C)[C@@H](C)C(=O)N[C@@H](CC(N)=O)C(=O)N2CCC[C@H]2C(=O)N[C@@H](CNC(=S)Nc2c(Cl)cccc2Cl)C(=O)N[C@@H](CC(C)C)C(=O)N2C[C@H](O)C[C@H]2C(=O)N[C@@H](Cc2c[nH]c3ccccc23)C(=O)N[C@@H](CCNC(=S)Nc2c(Cl)cccc2Cl)C(=O)N[C@@H](Cc2cn(CC(=O)O)c3ccccc23)C(=O)N1C` [Example 1039] ({CH2CO}-Y[NMeA]NP[Dap](X85)L[Hyp]W[Dab](X85)[Trp(1-CH2COOH)][NMeNle][NMeNle]LCG-NH2; thioether N-14), with 0.6 nM.
Turning to `CCCC[C@H]1C(=O)N(C)[C@@H](CCCC)C(=O)N[C@@H](CC(C)C)C(=O)N[C@H](C(=O)NCC(N)=O)CSCC(=O)N[C@@H](Cc2ccc(O)cc2)C(=O)N(C)[C@@H](C)C(=O)N[C@@H](CC(N)=O)C(=O)N2CCC[C@H]2C(=O)N[C@@H](CNC(=S)Nc2ccc(NC(=O)OC(C)(C)C)cc2)C(=O)N[C@@H](CC(C)C)C(=O)N2C[C@H](O)C[C@H]2C(=O)N[C@@H](Cc2c[nH]c3ccccc23)C(=O)N[C@@H](CCN)C(=O)N[C@@H](Cc2cn(CC(=O)O)c3ccccc23)C(=O)N1C` [Example 1040] ({CH2CO}-Y[NMeA]NP[Dap](X65)L[Hyp]W[Dab][Trp(1-CH2COOH)][NMeNle][NMeNle]LCG-NH2; thioether N-14), the IC50 stood at 3.9 nM.
For `CCCC[C@H]1C(=O)N(C)[C@@H](CCCC)C(=O)N[C@@H](CC(C)C)C(=O)N[C@H](C(=O)NCC(N)=O)CSCC(=O)N[C@@H](Cc2ccc(O)cc2)C(=O)N(C)[C@@H](C)C(=O)N[C@@H](CC(N)=O)C(=O)N2CCC[C@H]2C(=O)N[C@@H](CNC(=S)Nc2ccc(NC(=O)OC(C)(C)C)cc2)C(=O)N[C@@H](CC(C)C)C(=O)N2C[C@H](O)C[C@H]2C(=O)N[C@@H](Cc2c[nH]c3ccccc23)C(=O)N[C@@H](CCNC(=S)Nc2ccc(NC(=O)OC(C)(C)C)cc2)C(=O)N[C@@H](Cc2cn(CC(=O)O)c3ccccc23)C(=O)N1C` [Example 1041] ({CH2CO}-Y[NMeA]NP[Dap](X65)L[Hyp]W[Dab](X65)[Trp(1-CH2COOH)][NMeNle][NMeNle]LCG-NH2; thioether N-14), the IC50 was found to be 2.3 nM.
On the same count and under the same terms, then `CCCC[C@H]1C(=O)N(C)[C@@H](CCCC)C(=O)N[C@@H](CC(C)C)C(=O)N[C@H](C(=O)NCC(N)=O)CSCC(=O)N[C@@H](Cc2ccc(O)cc2)C(=O)N(C)[C@@H](C)C(=O)N[C@@H](CC(N)=O)C(=O)N2CCC[C@H]2C(=O)N[C@@H](CNC(=S)Nc2ccc(C(=O)OCC)cc2)C(=O)N[C@@H](CC(C)C)C(=O)N2C[C@H](O)C[C@H]2C(=O)N[C@@H](Cc2c[nH]c3ccccc23)C(=O)N[C@@H](CCN)C(=O)N[C@@H](Cc2cn(CC(=O)O)c3ccccc23)C(=O)N1C` [Example 1042] ({CH2CO}-Y[NMeA]NP[Dap](X19)L[Hyp]W[Dab][Trp(1-CH2COOH)][NMeNle][NMeNle]LCG-NH2; thioether N-14), with 4 nM.
The same measure, in the same setting: under `CCCC[C@H]1C(=O)N(C)[C@@H](CCCC)C(=O)N[C@@H](CC(C)C)C(=O)N[C@H](C(=O)NCC(N)=O)CSCC(=O)N[C@@H](Cc2ccc(O)cc2)C(=O)N(C)[C@@H](C)C(=O)N[C@@H](CC(N)=O)C(=O)N2CCC[C@H]2C(=O)N[C@@H](CNC(=S)Nc2ccc(C(=O)OCC)cc2)C(=O)N[C@@H](CC(C)C)C(=O)N2C[C@H](O)C[C@H]2C(=O)N[C@@H](Cc2c[nH]c3ccccc23)C(=O)N[C@@H](CCNC(=S)Nc2ccc(C(=O)OCC)cc2)C(=O)N[C@@H](Cc2cn(CC(=O)O)c3ccccc23)C(=O)N1C` [Example 1043] ({CH2CO}-Y[NMeA]NP[Dap](X19)L[Hyp]W[Dab](X19)[Trp(1-CH2COOH)][NMeNle][NMeNle]LCG-NH2; thioether N-14) stands 0.6 nM; under `CCCC[C@H]1C(=O)N(C)[C@@H](CCCC)C(=O)N[C@@H](CC(C)C)C(=O)N[C@H](C(=O)NCC(N)=O)CSCC(=O)N[C@@H](Cc2ccc(O)cc2)C(=O)N(C)[C@@H](C)C(=O)N[C@@H](CC(N)=O)C(=O)N2CCC[C@H]2C(=O)N[C@@H](CNC(=S)Nc2c(F)cc(F)cc2F)C(=O)N[C@@H](CC(C)C)C(=O)N2C[C@H](O)C[C@H]2C(=O)N[C@@H](Cc2c[nH]c3ccccc23)C(=O)N[C@@H](CCNC(=S)Nc2c(F)cc(F)cc2F)C(=O)N[C@@H](Cc2cn(CC(=O)O)c3ccccc23)C(=O)N1C` [Example 1044] ({CH2CO}-Y[NMeA]NP[Dap](X96)L[Hyp]W[Dab](X96)[Trp(1-CH2COOH)][NMeNle][NMeNle]LCG-NH2; thioether N-14), 3.3 nM.

A word on the IC50: it is the point on the concentration scale where inhibition reaches its midpoint.
